Test results taken from patent US20240391959A1, “BICYCLIC PEPTIDE LIGANDS […] FOR TRANSFERRIN RECEPTOR 1 (TfR1)” (BicycleTx Limited, priority 2020, published 2024).
Like-named read-outs stand apart in the source and are kept apart here. Starred links: 1 amine or outer side, 2 acyl side, 3 side chain; linkers in the order of their positions; H or OH if unused. Positions of bridges follow the written chain, without caps; N, C: chain ends. Residues, ends and D or L forms follow the SMILES beside them. TATA = O=C(CC[*:1])N1CN(C(=O)CC[*:2])CN(C(=O)CC[*:3])C1; TATB = O=C(C[*:1])N1CN(C(=O)C[*:2])CN(C(=O)C[*:3])C1

Columns and labels:
human TfR1 [1] = biological target: T1, human TfR1 (Homo sapiens, UniProt P02786); assay: TfR1 inhibition assay (Alpha assay, transferrin inhibition); details: inhibition of fluorescently labelled human transferrin binding; read-out: Geomean IC50 (μM) Human TfR1
Method: TfR1 inhibitory activity of peptides of the invention (IC50) was determined using Alpha assay, in accordance with the following method. Proteins, peptides and Alpha reagents were prepared to 5× concentration and 5 μl of each reagent added to 25 μl total volume in white 384-well Optiplate to make 1× final concentration. Fluorescently labelled human transferrin (Invitrogen, T2871) was diluted to 2.5 nM in 25 mM HEPES with 100 mM NaCl, 4 mM CaCl2, 0.5% BSA and 0.05% P20, pH 7.4. Human or cynomolgus TfR1 protein was diluted to 50 nM and unlabelled human transferrin (R&D Systems, 2914-HT) was diluted to 500 nM in the same assay buffer. Non-labelled peptides from DMSO stock were diluted 20-fold in the same assay buffer, followed by 1 in 3 serial dilution in assay buffer containing 5% DMSO to give 11-different concentrations. 5 μl fluorescently labelled transferrin, 5 μl human or cynomolgus TfR1, 5 μl non-labelled peptide or unlabelled human transferrin (R&D Systems, 2914-HT) were added to white 384-well Optiplate and incubated for 30 min. Anti-FITC Acceptor (PerkinElmer, AL127) was diluted 50-fold in assay buffer, 5 μl added to assay plate and incubated for 30 min. […] Luminescence measurements were conducted on a BMG PHERAstar FS or FSX equipped with an AlphaScreen 520-620 module at 25° C. following excitation at 680 nm. […]
Target sequence in this assay (P02786 whole entry): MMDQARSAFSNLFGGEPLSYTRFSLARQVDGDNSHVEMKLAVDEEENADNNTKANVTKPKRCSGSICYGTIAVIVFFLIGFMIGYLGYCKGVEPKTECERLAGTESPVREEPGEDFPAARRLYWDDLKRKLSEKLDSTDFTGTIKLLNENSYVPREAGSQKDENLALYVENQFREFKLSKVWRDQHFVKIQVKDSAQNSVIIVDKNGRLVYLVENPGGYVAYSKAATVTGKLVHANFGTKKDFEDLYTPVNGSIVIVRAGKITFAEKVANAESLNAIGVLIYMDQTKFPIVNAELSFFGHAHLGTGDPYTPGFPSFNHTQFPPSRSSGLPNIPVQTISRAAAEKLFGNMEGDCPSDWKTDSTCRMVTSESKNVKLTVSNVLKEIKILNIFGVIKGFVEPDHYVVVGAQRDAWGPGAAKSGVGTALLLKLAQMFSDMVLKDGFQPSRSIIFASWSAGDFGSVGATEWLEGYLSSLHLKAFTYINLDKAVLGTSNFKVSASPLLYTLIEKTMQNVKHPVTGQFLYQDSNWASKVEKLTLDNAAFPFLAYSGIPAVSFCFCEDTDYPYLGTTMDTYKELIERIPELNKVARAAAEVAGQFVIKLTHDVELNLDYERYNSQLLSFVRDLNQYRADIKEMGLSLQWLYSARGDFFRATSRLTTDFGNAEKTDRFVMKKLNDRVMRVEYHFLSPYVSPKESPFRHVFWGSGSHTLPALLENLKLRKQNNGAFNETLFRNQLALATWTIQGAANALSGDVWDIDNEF

cynomolgus TfR1 [2] = type: binding
cynomolgus TfR1 [3] = type: binding; remark: listed apart in the source
human TfR1 [4] = biological target: T1, human TfR1; assay: biochemical; type: binding; parameters: His6-tagged TfR1 (a.a. 89-760) (ACRO Biosystems, CD1-H5243 and TFR-C524a); His6; purchased R&D Systems or Acro Biosystems 2474-TR or CD1-H5243
Target sequence in this assay (P02786 89-760): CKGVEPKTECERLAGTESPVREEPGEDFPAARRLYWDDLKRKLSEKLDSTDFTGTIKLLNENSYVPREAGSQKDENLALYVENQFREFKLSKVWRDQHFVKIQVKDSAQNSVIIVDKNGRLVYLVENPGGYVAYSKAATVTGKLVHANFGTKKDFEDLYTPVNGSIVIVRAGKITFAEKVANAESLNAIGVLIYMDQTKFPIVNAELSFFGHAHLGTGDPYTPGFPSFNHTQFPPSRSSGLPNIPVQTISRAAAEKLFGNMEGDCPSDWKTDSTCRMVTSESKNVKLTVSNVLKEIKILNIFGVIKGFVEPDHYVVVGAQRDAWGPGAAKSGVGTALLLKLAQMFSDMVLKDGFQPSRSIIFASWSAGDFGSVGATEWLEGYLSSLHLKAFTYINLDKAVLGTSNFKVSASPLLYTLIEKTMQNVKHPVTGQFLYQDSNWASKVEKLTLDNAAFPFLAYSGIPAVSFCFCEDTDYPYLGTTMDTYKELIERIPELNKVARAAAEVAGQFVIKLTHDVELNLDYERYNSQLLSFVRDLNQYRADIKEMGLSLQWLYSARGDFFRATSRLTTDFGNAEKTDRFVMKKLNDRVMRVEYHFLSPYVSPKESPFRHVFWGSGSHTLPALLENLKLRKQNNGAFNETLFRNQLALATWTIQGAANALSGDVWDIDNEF

human TfR1 [5] = biological target: T1, human TfR1; assay: biochemical; type: binding; parameters: His6-tagged TfR1 (a.a. 89-760) (ACRO Biosystems, CD1-H5243 and TFR-C524a); His6; purchased R&D Systems or Acro Biosystems 2474-TR or CD1-H5243; remark: listed apart in the source
Target sequence in this assay (P02786 89-760): as above

| SMILES | IC50 (human TfR1 [1]) [µM] | Kd (cynomolgus TfR1 [2]) [nM] | Ki (cynomolgus TfR1 [3]) [nM] | Kd (human TfR1 [4]; Human TfR1 Kd (nM)) [nM] | Ki (human TfR1 [5]; Human TfR1 Ki (nM)) [nM] | Kd (human TfR1 [4]; read-out: Human TfR1 Kd) [nM] | Ki (human TfR1 [5]; Geomean Ki (μM)) [nM] |
| --- | --- | --- | --- | --- | --- | --- | --- |
| CC[C@H](C)[C@@H]1NC(=O)[C@H](Cc2ccccc2)NC(=O)[C@H](C)NC(=O)[C@H](CC(C)C)NC(=O)CNC(=O)[C@@H]2CSCCC(=O)N3CN(CN(C3)C(=O)CCSC[C@@H](C(=O)N[C@@H](C)C(N)=O)NC(=O)[C@H](CCC(=O)O)NC1=O)C(=O)CCSC[C@H](NC(=O)[C@H](C)N)C(=O)N[C@@H](CCCNC(=N)N)C(=O)N[C@@H](CCC(=O)O)C(=O)N[C@@H](Cc1ccccc1)C(=O)N[C@@H](Cc1ccccc1)C(=O)N[C@@H](CC(=O)O)C(=O)N[C@@H]([C@@H](C)O)C(=O)N2 [BCY12452, A-(SEQ ID NO: 2)-A] (H-ACREFFDTCGLAFIECA-NH2; linker 2-9-16 via TATA; N-terminus and C-terminus assumed) | 1.21 | – | – | – | – | – | – |
| CC[C@H](C)[C@@H]1NC(=O)[C@@H]2CSCC(=O)N3CN(CN(C3)C(=O)CSC[C@@H](C(=O)N[C@@H](C)C(N)=O)NC(=O)[C@H](Cc3ccc(O)cc3)NC(=O)[C@H](CO)NC1=O)C(=O)CSC[C@H](NC(=O)[C@H](C)N)C(=O)N[C@@H](CO)C(=O)N1CCC[C@H]1C(=O)N[C@@H](CC(=O)O)C(=O)N[C@@H](C)C(=O)N[C@@H](Cc1c[nH]cn1)C(=O)N[C@@H](CC(C)C)C(=O)NCC(=O)N2 [BCY15468, A-(SEQ ID NO: 9)-A] | – | 4020 | 1230 | 29 | 103 | – | – |
| CC[C@H](C)[C@@H]1NC(=O)[C@@H]2CSCC(=O)N3CN(CN(C3)C(=O)CSC[C@@H](C(=O)N[C@@H](C)C(N)=O)NC(=O)[C@H](Cc3ccc4ccccc4c3)NC(=O)[C@H](CO)NC1=O)C(=O)CSC[C@H](NC(=O)[C@H](C)N)C(=O)N[C@@H](CO)C(=O)N1CCC[C@H]1C(=O)N[C@@H](CC(=O)O)C(=O)N[C@@H](C)C(=O)N[C@@H](Cc1c[nH]cn1)C(=O)N[C@@H](CC(C)C)C(=O)NCC(=O)N2 [BCY16031, A-(SEQ ID NO: 36)-A] | – | 6480 | – | – | – | 68 | 119 |
| CC[C@H](C)[C@@H]1NC(=O)[C@@H]2CSCC(=O)N3CN(CN(C3)C(=O)CSC[C@@H](C(=O)N[C@@H](C)C(N)=O)NC(=O)[C@H](Cc3ccncc3)NC(=O)[C@H](CO)NC1=O)C(=O)CSC[C@H](NC(=O)[C@H](C)N)C(=O)N[C@@H](CO)C(=O)N1CCC[C@H]1C(=O)N[C@@H](CC(=O)O)C(=O)N[C@@H](C)C(=O)N[C@@H](Cc1c[nH]cn1)C(=O)N[C@@H](CC(C)C)C(=O)NCC(=O)N2 [BCY16032, A-(SEQ ID NO: 48)-A] | – | 30000 | – | 305 | – | – | 654 |
| CC[C@H](C)[C@@H]1NC(=O)[C@@H]2CSCC(=O)N3CN(CN(C3)C(=O)CSC[C@@H](C(=O)N[C@@H](C)C(N)=O)NC(=O)[C@H](Cc3ccc(O)cc3)NC(=O)[C@H](CO)NC1=O)C(=O)CSC[C@H](NC(=O)[C@H](C)N)C(=O)N[C@@H](CO)C(=O)N1C[C@H](O)C[C@H]1C(=O)N[C@@H](CC(=O)O)C(=O)N[C@@H](C)C(=O)N[C@@H](Cc1c[nH]cn1)C(=O)N[C@@H](CC(C)C)C(=O)NCC(=O)N2 [BCY16047, A-(SEQ ID NO: 15)-A] | – | 4830 | – | – | 42 | 49 | 133 |
| CC[C@H](C)[C@@H]1NC(=O)[C@@H]2CSCC(=O)N3CN(CN(C3)C(=O)CSC[C@H](NC(=O)[C@H](CCSC)NC(=O)[C@H](Cc3c[nH]c4ccccc34)NC(=O)[C@@H](N)Cc3c[nH]cn3)C(=O)N[C@@H](CO)C(=O)N3CCC[C@H]3C(=O)N[C@@H](CC(=O)O)C(=O)N[C@@H](C)C(=O)N[C@@H](Cc3c[nH]cn3)C(=O)N[C@@H](CC(C)C)C(=O)NCC(=O)N2)C(=O)CSC[C@@H](C(=O)N[C@@H](C)C(N)=O)NC(=O)[C@H](Cc2ccc(O)cc2)NC(=O)[C@H](CO)NC1=O [BCY17110, HWM-(SEQ ID NO: 9)-A] (H-HWMCSPDAHLGCISYCA-NH2; linker 4-12-16 via TATB) | – | 232 | – | 15 | – | – | 22 |
| CC[C@H](C)[C@@H]1NC(=O)[C@@H]2CSCC(=O)N3CN(CN(C3)C(=O)CSC[C@H](NC(=O)[C@H](CO)NC(=O)[C@@H](NC(=O)[C@@H](N)Cc3c[nH]cn3)[C@@H](C)O)C(=O)N[C@@H](CO)C(=O)N3CCC[C@H]3C(=O)N[C@@H](CC(=O)O)C(=O)N[C@@H](C)C(=O)N[C@@H](Cc3c[nH]cn3)C(=O)N[C@@H](CC(C)C)C(=O)NCC(=O)N2)C(=O)CSC[C@@H](C(=O)N[C@@H](C)C(N)=O)NC(=O)[C@H](Cc2ccc(O)cc2)NC(=O)[C@H](CO)NC1=O [BCY17111, HTS-(SEQ ID NO: 9)-A] (H-HTSCSPDAHLGCISYCA-NH2; linker 4-12-16 via TATB) | – | 907 | – | 8.3 | – | – | 86 |
| CC[C@H](C)[C@@H]1NC(=O)[C@@H]2CSCC(=O)N3CN(CN(C3)C(=O)CSC[C@H](NC(=O)[C@H](Cc3ccccc3)NC(=O)[C@H](CO)NC(=O)[C@@H](N)CCC(=O)O)C(=O)N[C@@H](CO)C(=O)N3CCC[C@H]3C(=O)N[C@@H](CC(=O)O)C(=O)N[C@@H](C)C(=O)N[C@@H](Cc3c[nH]cn3)C(=O)N[C@@H](CC(C)C)C(=O)NCC(=O)N2)C(=O)CSC[C@@H](C(=O)N[C@@H](C)C(N)=O)NC(=O)[C@H](Cc2ccc(O)cc2)NC(=O)[C@H](CO)NC1=O [BCY17113, ESF-(SEQ ID NO: 9)-A] (H-ESFCSPDAHLGCISYCA-NH2; linker 4-12-16 via TATB) | – | 1660 | – | 308 | – | – | 103 |
| CC[C@H](C)[C@@H]1NC(=O)[C@@H]2CSCC(=O)N3CN(CN(C3)C(=O)CSC[C@@H](C(=O)N3CCC[C@H]3C(=O)N[C@@H](Cc3c[nH]cn3)C(=O)N3CCC[C@H]3C(N)=O)NC(=O)[C@H](Cc3ccc(O)cc3)NC(=O)[C@H](CO)NC1=O)C(=O)CSC[C@H](NC(=O)[C@H](C)N)C(=O)N[C@@H](CO)C(=O)N1CCC[C@H]1C(=O)N[C@@H](CC(=O)O)C(=O)N[C@@H](C)C(=O)N[C@@H](Cc1c[nH]cn1)C(=O)N[C@@H](CC(C)C)C(=O)NCC(=O)N2 [BCY17115, A-(SEQ ID NO: 9)-PHP] (H-ACSPDAHLGCISYCPHP-NH2; linker 2-10-14 via TATB; N-terminus and C-terminus assumed) | – | 1240 | – | 60 | 30 | – | 30 |
| CC[C@H](C)[C@@H]1NC(=O)[C@@H]2CSCC(=O)N3CN(CN(C3)C(=O)CSC[C@@H](C(=O)N[C@@H](CCC(=O)O)C(=O)N[C@@H](Cc3c[nH]cn3)C(=O)N[C@@H](CCC(N)=O)C(=O)N[C@@H](CCC(=O)O)C(N)=O)NC(=O)[C@H](Cc3ccc(O)cc3)NC(=O)[C@H](CO)NC1=O)C(=O)CSC[C@H](NC(=O)[C@H](C)N)C(=O)N[C@@H](CO)C(=O)N1CCC[C@H]1C(=O)N[C@@H](CC(=O)O)C(=O)N[C@@H](C)C(=O)N[C@@H](Cc1c[nH]cn1)C(=O)N[C@@H](CC(C)C)C(=O)NCC(=O)N2 [BCY17119, A-(SEQ ID NO: 9)-EHQE] (H-ACSPDAHLGCISYCEHQE-NH2; linker 2-10-14 via TATB) | – | 5650 | – | 212 | – | – | 160 |
| CC[C@H](C)[C@@H]1NC(=O)[C@@H]2CSCC(=O)N3CN(CN(C3)C(=O)CSC[C@H](NC(C)=O)C(=O)N[C@@H](CO)C(=O)N[C@@H](C)C(=O)N[C@@H](CC(=O)O)C(=O)N[C@@H](C)C(=O)N[C@@H](Cc3c[nH]cn3)C(=O)N[C@@H](CC(C)C)C(=O)NCC(=O)N2)C(=O)CSC[C@@H](C(N)=O)NC(=O)[C@H](Cc2ccc(O)cc2)NC(=O)[C@H](CO)NC1=O [BCY17987, Ac-(SEQ ID NO: 19)] (Ac-CSADAHLGCISYC-NH2; linker 1-9-13 via TATB) | – | 5140 | – | 50 | 383 | – | 42 |
| CC[C@H](C)[C@@H]1NC(=O)[C@@H]2CSCC(=O)N3CN(CN(C3)C(=O)CSC[C@@H](C(=O)N[C@@H](CCC(=O)O)C(=O)N3CCCC[C@H]3C(=O)N[C@@H](Cc3c[nH]c4ccccc34)C(N)=O)NC(=O)[C@H](Cc3ccc(O)cc3)NC(=O)[C@H](CO)NC1=O)C(=O)CSC[C@H](NC(C)=O)C(=O)N[C@@H](CO)C(=O)N1CCC[C@H]1C(=O)N[C@@H](CC(=O)O)C(=O)N[C@@H](C)C(=O)N[C@@H](Cc1c[nH]cn1)C(=O)N[C@@H](CC(C)C)C(=O)NCC(=O)N2 [BCY18039, Ac-(SEQ ID NO: 9)-E[Pip]W] | – | 819 | – | 8.6 | 8 | – | 8 |
